Source: patent publication US20250073232A1, “COMBINATIONS OF LSD1 INHIBITORS FOR TREATING MYELOID CANCERS” (ORYZON GENOMICS, S.A., priority 2021, published 2025)

Experiments:
MOLM-13 = experiment: Single agent viability assay (96 hours, alamarBlue); format: cell-based; conditions: for EC50: Homo sapiens, 96 hours incubation
Procedure: (§1) Mycoplasma-free AML cell lines were maintained in RPMI 10% FBS medium at 37° C. in a humidified incubator with controlled 5% CO2 atmosphere. Cell freezing and thawing was performed following recommendation from ATCC. Genetic profiling of the cell lines used is available in Table 1.
(§2) Cells were seeded in 96-well plates at the optimal density to guarantee linear growth throughout the assay (8000 cells/well for MV(4; 11), 4000 cells/well for MOLM-13 and OCI-AML3, 2000 cells/well for TF1a) in 50 μL of medium. Each experimental condition was tested in technical triplicates, including medium-only and vehicle-treated controls for background correction and normalization, respectively. After seeding, 50 μL of medium containing 9 serial dilutions (1:3) of 2×-concentrated compound were added to the cells to obtain 100 μL of cells with 1×-concentrated compound at each dilution. Cells were then incubated for 96 hours at 37° C. in a controlled 5% CO2 atmosphere, prior to evaluation of cell viability using alamarBlue™ cell viability reagent (ThermoFisher Scientific, Waltham, MA/USA). AlamarBlue™ is a cell viability indicator that uses the natural reducing power of living cells to convert resazurin to the fluorescent molecule, resorufin. Briefly, alamarBlue™ stock solution was diluted 1:20 in the culture medium and after 3 hours incubation fluorescence was measured using a TECAN Infinity 2000 plate reader (Tecan Group Ltd., Männedorf, CH; 540-570 nm excitation wavelength, 580-610 nm emission wavelength). For each condition, the average fluorescence was calculated from the 3 technical replicates; background correction was calculated from the fluorescence of medium-only controls. Data were analyzed using the GraphPad PRISM® version 9.0.1 (GraphPad Software, Inc., La Jolla, CA/USA) to calculate the best-fitting curves and the EC50 values.

MV(4; 11) = experiment: as above; format: cell-based; conditions: for EC50: Homo sapiens, MV4-11, 96 hours incubation
Procedure: as §1, §2

R/R AML = R/R AML patients treated with gilteritinib; cited from earlier work
TF-1a = experiment: Single agent viability assay (96 hours, alamarBlue); format: cell-based; conditions: for EC50 range in words / reduction of viability (compared to vehicle controls): 96 hours; for EC50: TF-1a
Procedure: as §1, §2

OCI-AML3 = experiment: as above; format: cell-based; conditions: for EC50: Homo sapiens; for EC50 range in words / reduction of viability (compared to vehicle controls): single agent, 96 hours
Procedure: as §1, §2

[1] = single agent, 96 hours incubation
[2] = OCI-AML-3, single agent, 96 hours incubation

Row | SMILES | EC50 range in words (MOLM-13; 96 hours) | EC50 (MOLM-13) | EC50 range in words (MV(4; 11); 96 hours) | EC50 (MV(4; 11)) | R/R AML patients showing complete remission (R/R AML) | relapse-free survival (R/R AML) | EC50 range in words (TF-1a; TF1a, single agent) | reduction of viability (compared to vehicle controls) (TF-1a; TF1a, single agent) | EC50 (TF-1a; [1]) | reduction of viability (compared to vehicle controls) (MOLM-13; 96 hours) | reduction of viability (compared to vehicle controls) (MV(4; 11); 96 hours) | EC50 (OCI-AML3; [2]) | EC50 range in words (OCI-AML3) | reduction of viability (compared to vehicle controls) (OCI-AML3) | EC50 (TF-1a; TF1a, tested following the method described above) | EC50 (OCI-AML3; OCI-AML-3, tested following the method described above)
1 | COc1ccc(-c2c(-c3ccc(C#N)c(F)c3)nc(N3CCC(N)CC3)n(C)c2=O)cc1F [CC-90011, 4-[2-(4-aminopiperidin-1-yl)-5-(3-fluoro-4-methoxyphenyl)-1-methyl-6-oxo-1,6-dihydropyrimidin-4-yl]-2-fluorobenzonitrile] | nanomolar range | 1.49 nM | nanomolar range | 2.3 nM |  |  |  |  |  |  |  |  |  |  |  | 
2 | CN1CCN(C(=O)[C@H](CCCN[C@@H]2C[C@H]2c2ccc(F)cc2)NC(=O)c2ccc(-n3ccnn3)cc2)CC1 [bomedemstat, N-[(2S)-5-{[(1R,2S)-2-(4-fluorophenyl)cyclopropyl]amino}-1-(4-methylpiperazin-1-yl)-1-oxopentan-2-yl]-4-(1H-1,2,3-triazol-1-yl) benzamide] | nanomolar range | 6.08 nM | nanomolar range | 3.73 nM |  |  |  |  |  |  |  |  |  |  |  | 
3 | CCc1nc(C(N)=O)c(Nc2ccc(N3CCC(N4CCN(C)CC4)CC3)c(OC)c2)nc1NC1CCOCC1 [gilteritinib, 6-ethyl-3-[[3-methoxy-4-[4-(4-methylpiperazinyl)piperidin-1-yl]phenyl]amino]-5-[(tetrahydro-2H-pyran-4-yl)amino]pyrazine-2-carboxamide] | nanomolar range | 2.91 nM | nanomolar range | 0.77 nM | 21% | around 4 months | micromolar range | > 70% | 1020 nM | ~100% | ~100% | 1160 nM | micromolar range | > 70% |  | 
4 | N[C@H]1CC[C@H](N[C@@H]2C[C@H]2c2ccccc2)CC1 [iadademstat, (trans)-N1-((1R,2S)-2-phenylcyclopropyl)cyclohexane-1,4-diamine] | sub-nanomolar range | 0.39 nM | sub-nanomolar range | 0.43 nM |  |  | sub-nanomolar range | greater than 20% | 0.35 nM |  |  | 0.38 nM | sub-nanomolar range | greater than 20% |  | 
5 | CC1(C)CCC(CN2CCN(c3ccc(C(=O)NS(=O)(=O)c4ccc(NCC5CCOCC5)c([N+](=O)[O-])c4)c(Oc4cnc5[nH]ccc5c4)c3)CC2)=C(c2ccc(Cl)cc2)C1 [venetoclax] |  |  |  |  |  |  |  |  |  |  |  |  |  |  | > 10000 nM | > 10000 nM
